Source: patent publication US20080009418A1, “Selective Inhibitors” (Alchemia LTD., priority 2004, published 2008)

How the values were obtained:
Conditions in all cases: compound at 10 μM
Mouse urotensin (mUR2) = biological target: T1, Mouse urotensin (mUR2) (Mus musculus, UniProt Q8VIH9); assay: Radioligand binding, mouse urotensin mUR2 membranes, FlashPlate, [125I]-Urotensin II
T1 construct: purchased Perkin Elmer Biosignal
T1 sequence (Q8VIH9 1-385): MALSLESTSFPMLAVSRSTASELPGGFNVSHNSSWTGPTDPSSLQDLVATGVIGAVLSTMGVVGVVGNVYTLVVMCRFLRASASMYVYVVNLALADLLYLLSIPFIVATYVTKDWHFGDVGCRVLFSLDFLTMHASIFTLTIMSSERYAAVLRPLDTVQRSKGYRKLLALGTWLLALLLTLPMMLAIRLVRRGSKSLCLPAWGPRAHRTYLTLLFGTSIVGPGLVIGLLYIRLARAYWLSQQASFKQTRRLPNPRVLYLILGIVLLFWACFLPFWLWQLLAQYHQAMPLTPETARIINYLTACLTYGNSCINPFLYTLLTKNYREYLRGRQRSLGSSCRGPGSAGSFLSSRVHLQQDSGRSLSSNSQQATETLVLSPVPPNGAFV
In short: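 Cloned mouse urotensin (mUR2) receptor membranes from Perkin Elmer Biosignal were immobilized in FlashPlate microplates using a proprietary coating. Each well got 19.5 μl buffer, then 0.5 μl of DMSO, reference ligand, or compound. Adding 5 μl of [125I]-Urotensin II, diluted to 5× final concentration in binding buffer, started binding. Plates were sealed with TopSeal-A and incubated 1 hour at room temperature in the dark. Wells were counted for 30 seconds each on a TopCount after a 60-second delay, and percentage inhibition was calculated.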

Human δ-opioid (DOP) = biological target: T2, Human δ-opioid (DOP) (Homo sapiens, UniProt P41143); assay: Radioligand binding, human δ-opioid (DOP) membranes, FlashPlate, [3H]-Bremazocine
T2 construct: purchased Perkin Elmer Biosignal
T2 sequence (P41143 whole entry): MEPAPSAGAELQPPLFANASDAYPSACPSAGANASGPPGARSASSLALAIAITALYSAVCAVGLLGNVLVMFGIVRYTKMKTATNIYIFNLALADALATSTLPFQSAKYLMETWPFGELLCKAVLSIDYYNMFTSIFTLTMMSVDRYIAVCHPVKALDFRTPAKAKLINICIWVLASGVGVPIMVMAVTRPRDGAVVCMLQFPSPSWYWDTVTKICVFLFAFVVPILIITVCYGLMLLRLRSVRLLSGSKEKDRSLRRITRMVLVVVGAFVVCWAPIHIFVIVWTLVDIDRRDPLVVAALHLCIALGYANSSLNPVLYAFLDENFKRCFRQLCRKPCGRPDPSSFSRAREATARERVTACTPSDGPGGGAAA
In short: (§1)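 Cloned human receptor membranes were coated onto FlashPlate wells and incubated with radioligand and compound (added from a 0.5 mM DMSO daughter plate) for 1 hour at room temperature in the dark. Scintillation counting gave percent inhibition, with DMSO defining total and reference ligand defining non-specific binding.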

[1] = biological target: T3, Human melanin-concentrating hormone (MCH1) (Homo sapiens, UniProt Q99705); assay: Radioligand binding, human melanin-concentrating hormone MCH1 membranes, FlashPlate, [125I]-S36057
T3 construct: purchased Perkin Elmer Biosignal
T3 sequence (Q99705 whole entry): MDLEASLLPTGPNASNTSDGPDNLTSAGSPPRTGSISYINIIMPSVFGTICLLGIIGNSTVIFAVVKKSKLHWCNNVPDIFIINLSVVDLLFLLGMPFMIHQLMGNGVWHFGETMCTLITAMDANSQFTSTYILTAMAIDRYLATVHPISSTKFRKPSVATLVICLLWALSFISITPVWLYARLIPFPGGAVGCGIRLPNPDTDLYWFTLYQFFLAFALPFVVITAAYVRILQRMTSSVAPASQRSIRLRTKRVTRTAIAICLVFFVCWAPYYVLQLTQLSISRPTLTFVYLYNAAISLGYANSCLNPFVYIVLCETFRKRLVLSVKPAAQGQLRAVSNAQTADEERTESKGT
In short: as §1

Human μ-opioid (MOP) = biological target: T4, Human μ-opioid (MOP) (Homo sapiens, UniProt P35372); assay: Radioligand binding, human μ-opioid (MOP) membranes, FlashPlate, [3H]-Naloxone
T4 construct: purchased Perkin Elmer Biosignal
T4 sequence (P35372 whole entry): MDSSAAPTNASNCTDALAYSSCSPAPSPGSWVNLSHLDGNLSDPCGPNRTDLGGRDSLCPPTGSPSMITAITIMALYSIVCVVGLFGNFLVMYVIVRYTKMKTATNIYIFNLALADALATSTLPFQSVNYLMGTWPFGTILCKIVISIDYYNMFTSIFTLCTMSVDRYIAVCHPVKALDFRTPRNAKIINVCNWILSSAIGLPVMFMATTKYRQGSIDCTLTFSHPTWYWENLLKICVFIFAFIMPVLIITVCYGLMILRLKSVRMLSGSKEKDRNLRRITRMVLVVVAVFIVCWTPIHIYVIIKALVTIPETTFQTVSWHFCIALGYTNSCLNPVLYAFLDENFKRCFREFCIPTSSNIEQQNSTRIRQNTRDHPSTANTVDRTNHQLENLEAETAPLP
In short: as §1

Human Melanocortin (MC3) = biological target: T5, Human Melanocortin (MC3) (Homo sapiens, UniProt P41968); assay: Radioligand binding, human melanocortin MC3 membranes, FlashPlate, [125I]-NDP-αMSH
T5 construct: purchased Perkin Elmer Biosignal
T5 sequence (P41968 whole entry): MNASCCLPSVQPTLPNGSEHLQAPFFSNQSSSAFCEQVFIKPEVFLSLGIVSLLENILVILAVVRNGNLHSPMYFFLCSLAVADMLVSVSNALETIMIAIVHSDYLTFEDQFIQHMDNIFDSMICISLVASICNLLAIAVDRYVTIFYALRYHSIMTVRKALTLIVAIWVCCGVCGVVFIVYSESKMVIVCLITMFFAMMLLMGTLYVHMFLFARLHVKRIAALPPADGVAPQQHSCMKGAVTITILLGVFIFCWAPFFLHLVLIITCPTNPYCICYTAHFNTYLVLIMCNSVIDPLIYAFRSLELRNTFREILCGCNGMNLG
In short: as §1

Human neurokinin (NK1) = biological target: T6, Human neurokinin (NK1) (Homo sapiens, UniProt P25103); assay: Radioligand binding, human neurokinin NK1 membranes, filtration, [125I]-Substance P
T6 construct: purchased Perkin Elmer Biosignal
T6 sequence (P25103 whole entry): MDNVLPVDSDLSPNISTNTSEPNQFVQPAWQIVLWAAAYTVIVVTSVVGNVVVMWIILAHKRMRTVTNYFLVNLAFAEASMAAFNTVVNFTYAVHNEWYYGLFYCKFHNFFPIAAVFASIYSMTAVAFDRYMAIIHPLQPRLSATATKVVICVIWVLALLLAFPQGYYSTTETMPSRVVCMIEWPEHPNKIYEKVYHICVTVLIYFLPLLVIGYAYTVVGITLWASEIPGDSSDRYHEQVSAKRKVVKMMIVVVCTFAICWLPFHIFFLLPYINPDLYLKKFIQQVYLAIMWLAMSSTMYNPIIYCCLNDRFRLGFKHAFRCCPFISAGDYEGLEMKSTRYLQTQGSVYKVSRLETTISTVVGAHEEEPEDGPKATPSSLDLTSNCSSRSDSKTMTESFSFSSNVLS
In short: (§2)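 Percent inhibition of radioligand binding measured on recombinant human membranes: NK1 with [125I]-Substance P, KOP with [3H]-Diprenorphine. Incubation 1 h at room temperature, then harvest onto 0.3% PEI-soaked filters, cold Tris-HCl pH 7.4 washes and scintillation counting; non-specific binding from reference ligand wells.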

[2] = biological target: T7, Human neuropeptide Y (NPY-Y1) (Homo sapiens, UniProt P25929); assay: Radioligand binding, human neuropeptide Y NPY-Y1 membranes, FlashPlate, [125I]-PYY
T7 construct: purchased Perkin Elmer Biosignal
T7 sequence (P25929 1-384): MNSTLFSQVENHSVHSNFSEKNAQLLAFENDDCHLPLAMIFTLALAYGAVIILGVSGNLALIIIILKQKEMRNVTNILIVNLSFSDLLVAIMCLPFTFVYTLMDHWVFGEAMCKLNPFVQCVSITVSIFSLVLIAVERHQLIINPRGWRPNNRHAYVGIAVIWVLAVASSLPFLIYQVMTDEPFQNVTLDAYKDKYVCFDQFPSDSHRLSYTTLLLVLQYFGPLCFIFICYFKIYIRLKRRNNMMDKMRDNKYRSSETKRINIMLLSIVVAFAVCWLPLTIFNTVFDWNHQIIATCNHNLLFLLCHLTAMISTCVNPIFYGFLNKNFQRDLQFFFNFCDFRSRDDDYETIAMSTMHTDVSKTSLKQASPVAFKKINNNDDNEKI
In short: as §1

Human melanocortin (MC5) = biological target: T8, Human melanocortin (MC5) (Homo sapiens, UniProt P33032); assay: Radioligand binding, human melanocortin MC5 membranes, FlashPlate, [125I]-NDP-αMSH
T8 construct: purchased Perkin Elmer Biosignal
T8 sequence (P33032 whole entry): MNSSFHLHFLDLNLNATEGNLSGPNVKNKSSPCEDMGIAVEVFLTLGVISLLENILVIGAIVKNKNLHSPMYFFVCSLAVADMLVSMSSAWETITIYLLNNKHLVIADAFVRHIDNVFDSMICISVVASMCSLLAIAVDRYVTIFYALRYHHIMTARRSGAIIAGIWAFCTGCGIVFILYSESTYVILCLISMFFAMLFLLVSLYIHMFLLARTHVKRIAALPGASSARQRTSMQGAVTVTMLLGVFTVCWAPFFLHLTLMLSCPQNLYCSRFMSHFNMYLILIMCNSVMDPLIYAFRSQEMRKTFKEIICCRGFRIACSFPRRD
In short: as §1

Human κ-Opioid (KOP) = biological target: T9, Human κ-Opioid (KOP) (Homo sapiens, UniProt P41145); assay: Radioligand binding, human κ-opioid (KOP) membranes, filtration, [3H]-Diprenorphine
T9 construct: purchased Perkin Elmer Biosignal
T9 sequence (P41145 whole entry): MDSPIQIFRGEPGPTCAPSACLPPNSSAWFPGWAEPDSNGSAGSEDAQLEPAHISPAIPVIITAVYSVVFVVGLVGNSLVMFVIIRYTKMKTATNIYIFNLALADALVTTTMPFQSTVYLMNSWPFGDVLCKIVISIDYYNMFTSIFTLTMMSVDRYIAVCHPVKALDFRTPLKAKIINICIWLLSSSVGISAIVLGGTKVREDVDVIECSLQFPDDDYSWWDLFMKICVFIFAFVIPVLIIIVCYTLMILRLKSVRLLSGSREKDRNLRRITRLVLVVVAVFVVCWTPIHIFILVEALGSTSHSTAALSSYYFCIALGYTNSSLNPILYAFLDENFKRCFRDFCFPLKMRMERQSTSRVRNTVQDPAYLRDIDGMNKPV
In short: as §2

Human Melanocortin (MC4) = biological target: T10, Human Melanocortin (MC4) (Homo sapiens, UniProt P32245); assay: Radioligand binding, human melanocortin MC4 membranes, FlashPlate, [125I]-NDP-αMSH
T10 construct: purchased Perkin Elmer Biosignal
T10 sequence (P32245 whole entry): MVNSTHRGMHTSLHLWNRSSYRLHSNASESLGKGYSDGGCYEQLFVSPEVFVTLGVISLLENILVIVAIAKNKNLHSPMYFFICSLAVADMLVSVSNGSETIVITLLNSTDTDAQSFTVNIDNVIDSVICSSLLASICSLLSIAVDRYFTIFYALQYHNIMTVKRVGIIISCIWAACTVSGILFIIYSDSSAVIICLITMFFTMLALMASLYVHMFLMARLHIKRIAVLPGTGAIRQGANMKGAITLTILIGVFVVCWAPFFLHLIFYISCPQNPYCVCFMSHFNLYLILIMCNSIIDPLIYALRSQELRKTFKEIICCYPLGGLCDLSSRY
In short: as §1

Human opioid (ORL1) = biological target: T11, Human opioid (ORL1) (Homo sapiens, UniProt P41146); assay: Radioligand binding, human opioid ORL1 membranes, FlashPlate, [125I]-Nociceptin
T11 construct: purchased Perkin Elmer Biosignal
T11 sequence (P41146 whole entry): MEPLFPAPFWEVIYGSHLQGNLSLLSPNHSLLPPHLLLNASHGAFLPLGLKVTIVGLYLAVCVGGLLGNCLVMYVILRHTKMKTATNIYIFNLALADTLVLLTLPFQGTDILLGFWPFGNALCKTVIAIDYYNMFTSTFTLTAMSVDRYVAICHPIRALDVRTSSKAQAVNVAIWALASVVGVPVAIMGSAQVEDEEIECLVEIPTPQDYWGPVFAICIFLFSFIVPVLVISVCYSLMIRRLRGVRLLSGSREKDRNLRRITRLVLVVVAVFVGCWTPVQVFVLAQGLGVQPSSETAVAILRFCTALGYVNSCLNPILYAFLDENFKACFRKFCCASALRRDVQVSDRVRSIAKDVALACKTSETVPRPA
In short: as §1

Structure (SMILES): N=C(N)NCC(=O)N[C@H]1C(OCc2ccc(Cl)cc2)O[C@H](COCc2ccc3ccccc3c2)[C@@H](O)[C@@H]1OCc1ccc(-c2ccccc2)cc1 (some centres unmarked) [compound 517]
- A11: inhibition of radioligand binding, mouse urotensin (mUR2) (Mouse urotensin (mUR2); [125I]-Urotensin II): − (“−” indicates less than 50% inhibition at 10 μM)
- A1: inhibition of radioligand binding, human δ-opioid (DOP) (Human δ-opioid (DOP); [3H]-Bremazocine): − (“−” indicates less than 50% inhibition at 10 μM)
- A6: inhibition of radioligand binding, human melanin-concentrating hormone (MCH1) ([1]; [125I]-S36057): + (“+” indicates greater than 50% inhibition at 10 μM)
- A7: inhibition of radioligand binding, human μ-opioid (MOP) (Human μ-opioid (MOP); [3H]-Naloxone): − (“−” indicates less than 50% inhibition at 10 μM)
- A3: inhibition of radioligand binding, human melanocortin (MC3) (Human Melanocortin (MC3); [125I]-NDP-αMSH): + (“+” indicates greater than 50% inhibition at 10 μM)
- A8: inhibition of radioligand binding, human neurokinin (NK1) (Human neurokinin (NK1); [125I]-Substance P): + (“+” indicates greater than 50% inhibition at 10 μM)
- A9: inhibition of radioligand binding, human neuropeptide Y (NPY-Y1) ([2]; [125I]-PYY): − (“−” indicates less than 50% inhibition at 10 μM)
- A5: inhibition of radioligand binding, human melanocortin (MC5) (Human melanocortin (MC5); [125I]-NDP-αMSH): + (“+” indicates greater than 50% inhibition at 10 μM)
- A2: inhibition of radioligand binding, human κ-opioid (KOP) (Human κ-Opioid (KOP); [3H]-Diprenorphine): + (“+” indicates greater than 50% inhibition at 10 μM)
- A4: inhibition of radioligand binding, human melanocortin (MC4) (Human Melanocortin (MC4); [125I]-NDP-αMSH): + (“+” indicates greater than 50% inhibition at 10 μM)
- A10: inhibition of radioligand binding, human opioid (ORL1) (Human opioid (ORL1); [125I]-Nociceptin): − (“−” indicates less than 50% inhibition at 10 μM)

Structure (SMILES): NCCCC(=O)NC1C(OCc2ccc3ccccc3c2)OC(COCc2ccc(Cl)cc2)C(O)C1OCc1ccc2ccccc2c1 (single isomer, unassigned) [compound 463]
- A11: inhibition of radioligand binding (Mouse urotensin (mUR2); [125I]-Urotensin II, mouse mUR2 membranes): − (“−” indicates less than 50% inhibition at 10 μM)
- A1: inhibition of radioligand binding (Human δ-opioid (DOP); [3H]-Bremazocine, human DOP membranes): − (“−” indicates less than 50% inhibition at 10 μM)
- A6: inhibition of radioligand binding ([1]; [125I]-S36057, human MCH1 membranes, 10 µM): + (“+” indicates greater than 50% inhibition at 10 μM)
- A7: inhibition of radioligand binding (Human μ-opioid (MOP); [3H]-Naloxone, human MOP membranes): − (“−” indicates less than 50% inhibition at 10 μM)
- A3: inhibition of radioligand binding (Human Melanocortin (MC3); [125I]-NDP-αMSH, human MC3 membranes): + (“+” indicates greater than 50% inhibition at 10 μM)
- A8: inhibition of radioligand binding (Human neurokinin (NK1); [125I]-Substance P, human NK1 membranes): + (“+” indicates greater than 50% inhibition at 10 μM)
- A9: inhibition of radioligand binding ([2]; [125I]-PYY, human NPY-Y1 membranes): − (“−” indicates less than 50% inhibition at 10 μM)
- A5: inhibition of radioligand binding (Human melanocortin (MC5); [125I]-NDP-αMSH, human MC5 membranes): + (“+” indicates greater than 50% inhibition at 10 μM)
- A2: inhibition of radioligand binding (Human κ-Opioid (KOP); [3H]-Diprenorphine, human KOP membranes, 10 µM): + (“+” indicates greater than 50% inhibition at 10 μM)
- A4: inhibition of radioligand binding (Human Melanocortin (MC4); [125I]-NDP-αMSH, human MC4 membranes): + (“+” indicates greater than 50% inhibition at 10 μM)
- A10: inhibition of radioligand binding (Human opioid (ORL1); [125I]-Nociceptin, human ORL1 membranes, 10 µM): − (“−” indicates less than 50% inhibition at 10 μM)

Structure (SMILES): CSC1O[C@H](COCc2ccc(Cl)cc2)[C@@H](O)[C@@H](OCc2ccc(Cl)cc2)[C@H]1NC(=O)CCNC(=N)N (some centres unmarked) [compound 272]
- A11: inhibition of radioligand binding (Mouse urotensin (mUR2); [125I]-Urotensin II, FlashPlate): − (“−” indicates less than 50% inhibition at 10 μM)
- A1: inhibition of radioligand binding (Human δ-opioid (DOP); [3H]-Bremazocine, FlashPlate): − (“−” indicates less than 50% inhibition at 10 μM)
- A6: inhibition of radioligand binding ([1]; [125I]-S36057, FlashPlate): − (“−” indicates less than 50% inhibition at 10 μM)
- A7: inhibition of radioligand binding (Human μ-opioid (MOP); [3H]-Naloxone, FlashPlate): − (“−” indicates less than 50% inhibition at 10 μM)
- A3: inhibition of radioligand binding (Human Melanocortin (MC3); [125I]-NDP-αMSH, FlashPlate): − (“−” indicates less than 50% inhibition at 10 μM)
- A8: inhibition of radioligand binding (Human neurokinin (NK1); [125I]-Substance P, filtration): + (“+” indicates greater than 50% inhibition at 10 μM)
- A9: inhibition of radioligand binding ([2]; [125I]-PYY, FlashPlate): − (“−” indicates less than 50% inhibition at 10 μM)
- A5: inhibition of radioligand binding (Human melanocortin (MC5); [125I]-NDP-αMSH, FlashPlate): + (“+” indicates greater than 50% inhibition at 10 μM)
- A2: inhibition of radioligand binding (Human κ-Opioid (KOP); [3H]-Diprenorphine, filtration): − (“−” indicates less than 50% inhibition at 10 μM)
- A4: inhibition of radioligand binding (Human Melanocortin (MC4); [125I]-NDP-αMSH, FlashPlate): + (“+” indicates greater than 50% inhibition at 10 μM)
- A10: inhibition of radioligand binding (Human opioid (ORL1); [125I]-Nociceptin, FlashPlate): − (“−” indicates less than 50% inhibition at 10 μM)

Structure (SMILES): CO[C@H]1[C@H](O)[C@@H](COCc2ccc(-c3ccccc3)cc2)OC(OCc2ccccc2)[C@@H]1NC(=O)CNC(=N)N (some centres unmarked) [compound 82]
- A11 radioligand binding inhibition (Mouse urotensin (mUR2); mouse urotensin mUR2 membranes): − (“−” indicates less than 50% inhibition at 10 μM)
- A1 radioligand binding inhibition (Human δ-opioid (DOP); human δ-opioid (DOP) membranes): − (“−” indicates less than 50% inhibition at 10 μM)
- A6 radioligand binding inhibition ([1]; human MCH1 membranes): − (“−” indicates less than 50% inhibition at 10 μM)
- A7 radioligand binding inhibition (Human μ-opioid (MOP); human μ-opioid (MOP) membranes): − (“−” indicates less than 50% inhibition at 10 μM)
- A3 radioligand binding inhibition (Human Melanocortin (MC3); human melanocortin MC3 membranes): − (“−” indicates less than 50% inhibition at 10 μM)
- A8 radioligand binding inhibition (Human neurokinin (NK1); human neurokinin NK1 membranes): + (“+” indicates greater than 50% inhibition at 10 μM)
- A9 radioligand binding inhibition ([2]; human NPY-Y1 membranes): − (“−” indicates less than 50% inhibition at 10 μM)
- A5 radioligand binding inhibition (Human melanocortin (MC5); human melanocortin MC5 membranes): − (“−” indicates less than 50% inhibition at 10 μM)
- A2 radioligand binding inhibition (Human κ-Opioid (KOP); human κ-opioid (KOP) membranes): − (“−” indicates less than 50% inhibition at 10 μM)
- A4 radioligand binding inhibition (Human Melanocortin (MC4); human melanocortin MC4 membranes): + (“+” indicates greater than 50% inhibition at 10 μM)
- A10 radioligand binding inhibition (Human opioid (ORL1); human ORL1 membranes): − (“−” indicates less than 50% inhibition at 10 μM)
